The text below walks through data of patent US20240199623A1 (ILDONG PHARMACEUTICAL CO., LTD., priority 2020, published 2024).

Series [1] deals with T1, Human recombinant PDE4A1A (Homo sapiens, UniProt P27815).
T1 construct: purchased BPS Bioscience; host or cells: insect Sf9 cells
Briefly: Human phosphodiesterase 4 (PDE4) inhibition, PDE4A1A. The class given is biochemical. The note with it: read-out: % inhibition range at 10 uM PDE4A1A. On the procedure:
(§1) […] Human recombinant PDE4A1A, PDE4B 1, PDE4C1 and PDE4D2 are respectively expressed in each host cell (insect Sf9 cells, BPS Bioscience). Preincubation of 10 μM test compounds or vehicle was proceeded with 20 ng/ml PDE4A1A or 4 ng/ml PDE4B 1 or 8 ng/ml PDE4C1 or 5 ng/ml PDE4D2 enzyme in Tris-HCl buffer pH 7.2 for 15 minutes at 25° C. 100 nM fluorescein (FAM) labeled cAMP for another 30 minutes incubation period was added in order to initiate the enzymatic reaction and addition of IMAP binding solution was followed for its termination. Specifically, IMAP complexes with phosphate groups on nucleotide monophosphate generated from cyclic nucleotides through PDE activity. The amount of complex formed is determined by reading spectrofluorimetrical signal at 470 nm/525 nm.

Series [2] deals with T2, human wild type-CFTR (Homo sapiens, UniProt P13569). Nature of the series: Short-circuit current measurement. As to conditions: FRT cells expressing human wild type-CFTR; Forskolin 20 μM signal used as 100% activity; read-out: Short-circuit current measurement (EC50) Concentration range. The class given is cell-based. Also on record: expressed in transfected cells. An outline of the steps: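 FRT monolayers stably carrying human wild-type CFTR were mounted in Ussing chambers; forskolin, compounds and the inhibitor CFTRinh-172 went to apical and basolateral sides. Read-outs were apical membrane current and short-circuit current, recorded at 4 Hz.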

The next series deals with T3, Human recombinant PDE4C1 (Homo sapiens, UniProt Q08493).
T3 construct: purchased BPS Bioscience; host or cells: insect Sf9 cells
Nature of the series: Human phosphodiesterase 4 (PDE4) inhibition, PDE4C1. The format is biochemical. The note with it: read-out: % inhibition range at 10 uM PDE4C1. On the procedure:
as §1

Series [3] can be described thus: Phosphate-buffered saline (PBS) solubility of compounds. The format is physicochemical. As to conditions: aqueous buffer, thermodynamic from solid, PBS pH 7.5, 0.5 mg/mL, vortexed 90 min, filtered, LC-MS/MS, read-out: Solubility Range. The procedure: PBS solutions (pH 7.5) were prepared according to the following compositions and stored at 4° C. Test compounds were dissolved in PBS (pH 7.5) at 0.5 mg/mL and vortexed for 90 min. The PBS solution was sequentially filtered through a 0.45, 1.2, […] syringe filter. Concentration of test compounds were determined using LC-MS/MS with appropriate dilution of the samples.

For series [4], the target named is T2, human wild type-CFTR. Nature of the series: Cell-based YFP assay. The arrangement: expressed in transfected cells; host or cells: CHO-K1 (Chinese hamster ovary). As to conditions: CHO-K1 cells expressing human wild type-CFTR and YFP-H148Q/I152L; forskolin 20 μM = 100% activity; read-out: Cell-based YFP Assay (EC50) Concentration Range. An outline of the steps: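 I⁻-driven YFP fluorescence quenching at 37 °C: 2 s baseline, addition of 140 mM iodide solution, then 14 s of readings at 0.4 s intervals. Cells were CHO-K1 expressing human wild-type CFTR plus YFP-H148Q/I152L. EC50 derived from averaged triplicates.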

The target of the next series is T4, Human recombinant PDE4D2 (Homo sapiens, UniProt Q08499).
T4 construct: purchased BPS Bioscience; host or cells: insect Sf9 cells
Nature of the series: Human phosphodiesterase 4 (PDE4) inhibition, PDE4D2. The class given is biochemical. As to conditions: read-out: % inhibition range at 10 uM PDE4D2. On the procedure: as §1

Series [5] concerns the target T5, Human recombinant PDE4B 1 (Homo sapiens, UniProt Q07343).
T5 construct: purchased BPS Bioscience; host or cells: insect Sf9 cells
Nature of the series: Human phosphodiesterase 4 (PDE4) inhibition, PDE4B 1. The class given is biochemical. As to conditions: read-out: % inhibition range at 10 uM PDE4B1. On the procedure:
as §1

Another series has as its system C57BL/6 female mice. Briefly: Scopolamine induced tear volume reduction model. As to conditions: scopolamine-injected mice, ophthalmic solution topically on both eyes 3 times a day, phenol red thread; average if evaluated twice. The class given is in vivo, mouse. The procedure:
Seven-week old C57BL/6 female mice were used.
Scopolamine hydrobromide was purchased from Sigma Aldrich (Cat No. S0929), dissolved in saline, and sterilized prior to use.
Zone-Quick phenol red thread was obtained from Menicon.
The test compounds used in this experiment were dissolved in PBS containing 1% of surfactant.
Scopolamine (0.2 ml of 2.5 mg/mL solution) was injected subcutaneously 3 times a day to induce a decrease in the tear volume in the mouse. At the same time, the ophthalmic solution of test compounds or vehicle were topically administered onto both eyes 3 times a day. Tear volume was measured by phenol red thread before dosing (basal level) and 1 hour after the last administration of scopolamine and ophthalmic solution. The results were obtained by measuring the length of the phenol red thread turning red by tears. The schedule of study is expressed as FIG. 1.
If the test compound was evaluated twice, the average value was used.

Values after ≈ are worked out from the molar mass of the structure shown. Where two headings read alike, the source gives them in different places.

T1 sequence (P27815 1-647 isoform P27815-4): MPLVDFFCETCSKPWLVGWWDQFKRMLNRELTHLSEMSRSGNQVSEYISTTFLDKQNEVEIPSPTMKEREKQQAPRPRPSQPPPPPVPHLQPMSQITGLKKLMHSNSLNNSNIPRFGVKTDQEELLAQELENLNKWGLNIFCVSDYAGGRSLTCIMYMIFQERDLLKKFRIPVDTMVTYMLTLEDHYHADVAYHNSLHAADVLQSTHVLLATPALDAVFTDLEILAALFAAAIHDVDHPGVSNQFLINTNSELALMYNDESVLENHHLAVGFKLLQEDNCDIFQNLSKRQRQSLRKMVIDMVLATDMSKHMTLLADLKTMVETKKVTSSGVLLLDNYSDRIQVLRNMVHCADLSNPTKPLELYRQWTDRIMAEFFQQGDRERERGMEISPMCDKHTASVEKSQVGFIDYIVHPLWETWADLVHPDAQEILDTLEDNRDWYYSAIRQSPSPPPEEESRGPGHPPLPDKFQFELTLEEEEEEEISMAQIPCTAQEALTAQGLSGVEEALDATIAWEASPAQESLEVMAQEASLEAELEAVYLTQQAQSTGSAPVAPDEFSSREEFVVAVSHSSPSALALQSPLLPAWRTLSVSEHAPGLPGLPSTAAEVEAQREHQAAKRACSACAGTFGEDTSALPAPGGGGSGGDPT
T2 sequence (P13569 whole entry): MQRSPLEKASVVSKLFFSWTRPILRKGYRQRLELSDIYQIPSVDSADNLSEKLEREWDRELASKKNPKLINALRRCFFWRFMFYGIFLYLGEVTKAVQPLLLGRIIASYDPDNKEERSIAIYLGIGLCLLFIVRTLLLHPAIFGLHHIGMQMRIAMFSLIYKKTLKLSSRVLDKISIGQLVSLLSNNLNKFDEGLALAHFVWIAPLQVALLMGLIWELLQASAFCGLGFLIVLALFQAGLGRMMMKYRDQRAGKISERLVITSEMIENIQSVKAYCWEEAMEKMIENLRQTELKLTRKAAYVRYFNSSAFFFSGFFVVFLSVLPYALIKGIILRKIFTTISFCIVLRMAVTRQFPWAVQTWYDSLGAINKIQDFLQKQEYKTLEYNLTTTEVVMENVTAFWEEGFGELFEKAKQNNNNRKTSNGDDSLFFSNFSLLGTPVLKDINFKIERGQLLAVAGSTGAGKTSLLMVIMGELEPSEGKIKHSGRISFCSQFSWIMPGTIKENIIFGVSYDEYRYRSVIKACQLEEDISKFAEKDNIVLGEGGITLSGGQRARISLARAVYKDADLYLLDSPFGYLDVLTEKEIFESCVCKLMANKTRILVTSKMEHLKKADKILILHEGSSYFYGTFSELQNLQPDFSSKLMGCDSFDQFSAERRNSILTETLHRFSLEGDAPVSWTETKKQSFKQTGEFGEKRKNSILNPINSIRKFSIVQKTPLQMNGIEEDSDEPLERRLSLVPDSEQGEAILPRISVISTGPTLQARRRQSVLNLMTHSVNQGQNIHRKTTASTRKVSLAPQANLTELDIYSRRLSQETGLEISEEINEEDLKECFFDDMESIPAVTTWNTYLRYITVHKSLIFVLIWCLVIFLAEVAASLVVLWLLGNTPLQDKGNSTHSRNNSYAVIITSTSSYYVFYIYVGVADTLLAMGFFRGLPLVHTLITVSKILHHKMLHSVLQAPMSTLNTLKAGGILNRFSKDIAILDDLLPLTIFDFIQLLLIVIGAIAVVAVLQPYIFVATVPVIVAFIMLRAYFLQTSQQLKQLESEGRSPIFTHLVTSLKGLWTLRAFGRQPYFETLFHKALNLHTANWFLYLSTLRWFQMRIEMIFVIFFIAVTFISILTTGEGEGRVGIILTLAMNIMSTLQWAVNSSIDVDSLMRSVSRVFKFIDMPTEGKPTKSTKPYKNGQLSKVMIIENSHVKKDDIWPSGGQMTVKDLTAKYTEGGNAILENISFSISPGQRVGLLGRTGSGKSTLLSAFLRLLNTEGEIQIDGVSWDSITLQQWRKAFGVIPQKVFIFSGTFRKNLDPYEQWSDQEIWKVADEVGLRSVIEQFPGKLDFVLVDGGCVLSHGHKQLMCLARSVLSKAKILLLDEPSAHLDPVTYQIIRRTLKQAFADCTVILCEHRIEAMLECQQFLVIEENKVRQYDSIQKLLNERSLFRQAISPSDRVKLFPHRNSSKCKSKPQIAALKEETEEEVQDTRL
T4 sequence (Q08499 303-809 limits assumed): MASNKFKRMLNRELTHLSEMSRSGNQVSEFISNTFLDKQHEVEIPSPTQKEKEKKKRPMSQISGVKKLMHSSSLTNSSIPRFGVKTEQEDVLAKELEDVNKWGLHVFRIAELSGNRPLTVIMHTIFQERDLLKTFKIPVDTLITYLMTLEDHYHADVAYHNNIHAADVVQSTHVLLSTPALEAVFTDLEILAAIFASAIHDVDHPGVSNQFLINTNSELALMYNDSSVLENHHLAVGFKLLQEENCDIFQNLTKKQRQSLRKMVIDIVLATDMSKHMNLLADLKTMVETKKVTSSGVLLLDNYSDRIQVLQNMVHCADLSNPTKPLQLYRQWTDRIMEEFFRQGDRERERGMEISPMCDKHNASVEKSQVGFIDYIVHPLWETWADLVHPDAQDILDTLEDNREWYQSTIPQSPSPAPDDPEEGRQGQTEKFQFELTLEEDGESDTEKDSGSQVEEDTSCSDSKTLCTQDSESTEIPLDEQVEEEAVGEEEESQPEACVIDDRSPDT
T5 sequence (Q07343 whole entry): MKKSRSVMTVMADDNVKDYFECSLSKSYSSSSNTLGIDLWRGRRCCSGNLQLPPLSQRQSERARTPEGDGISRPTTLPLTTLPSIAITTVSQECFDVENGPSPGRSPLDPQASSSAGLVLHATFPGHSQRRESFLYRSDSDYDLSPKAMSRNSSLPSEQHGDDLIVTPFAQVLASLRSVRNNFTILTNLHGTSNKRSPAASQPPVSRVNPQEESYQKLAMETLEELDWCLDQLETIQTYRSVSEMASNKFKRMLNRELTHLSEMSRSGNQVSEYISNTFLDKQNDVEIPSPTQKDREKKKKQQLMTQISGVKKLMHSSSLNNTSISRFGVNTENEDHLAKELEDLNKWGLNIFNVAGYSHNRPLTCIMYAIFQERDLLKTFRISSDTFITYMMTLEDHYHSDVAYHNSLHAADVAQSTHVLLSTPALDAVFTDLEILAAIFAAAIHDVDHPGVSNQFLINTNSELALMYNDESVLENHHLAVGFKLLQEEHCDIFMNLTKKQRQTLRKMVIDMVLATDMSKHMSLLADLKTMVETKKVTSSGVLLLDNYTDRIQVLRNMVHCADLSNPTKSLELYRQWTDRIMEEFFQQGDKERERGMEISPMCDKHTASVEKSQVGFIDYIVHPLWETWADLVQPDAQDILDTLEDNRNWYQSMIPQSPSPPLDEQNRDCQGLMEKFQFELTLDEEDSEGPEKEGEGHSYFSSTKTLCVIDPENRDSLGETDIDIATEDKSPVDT
T3 sequence (Q08493 whole entry): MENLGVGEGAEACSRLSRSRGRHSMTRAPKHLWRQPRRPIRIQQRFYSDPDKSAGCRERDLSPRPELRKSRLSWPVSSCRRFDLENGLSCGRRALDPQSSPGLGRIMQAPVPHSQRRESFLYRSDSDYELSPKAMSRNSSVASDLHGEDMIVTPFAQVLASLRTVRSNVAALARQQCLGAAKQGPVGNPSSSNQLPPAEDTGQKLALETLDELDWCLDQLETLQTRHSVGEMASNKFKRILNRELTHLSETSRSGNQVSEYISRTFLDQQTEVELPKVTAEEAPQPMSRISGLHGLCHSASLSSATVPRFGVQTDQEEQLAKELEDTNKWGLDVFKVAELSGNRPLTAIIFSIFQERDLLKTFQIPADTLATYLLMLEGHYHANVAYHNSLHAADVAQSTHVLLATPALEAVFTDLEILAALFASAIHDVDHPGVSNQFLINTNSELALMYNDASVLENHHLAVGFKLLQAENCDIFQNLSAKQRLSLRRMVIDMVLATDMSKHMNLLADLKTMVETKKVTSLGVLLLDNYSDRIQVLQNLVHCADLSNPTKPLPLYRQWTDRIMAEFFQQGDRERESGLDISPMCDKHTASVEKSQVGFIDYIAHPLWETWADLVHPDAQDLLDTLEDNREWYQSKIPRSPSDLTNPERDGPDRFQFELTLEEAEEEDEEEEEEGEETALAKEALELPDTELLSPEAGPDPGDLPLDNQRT

As for `COC(=O)c1ccc(NC(=O)c2cc3nccc(-c4ccc(OC)c(OC)c4)n3n2)cc1` [Compound 11, methyl 4-(7-(3,4-dimethoxyphenyl)pyrazolo[1,5-a]pyrimidine-2-carboxamido)benzoate], the inhibition at 10 µM (in series [1]; at Human recombinant PDE4C1; at Human recombinant PDE4D2; in series [5]) was over 80% each time. Further, the EC50 at human wild type-CFTR [2] and on human wild type-CFTR [4] was under 200 nM in each case. Moreover, the solubility at 90 min in series [3] was under 0.1 µg/mL.

As for `COC(=O)c1ccc(CNC(=O)c2cc3nccc(-c4ccc(OC)c(OC)c4)n3n2)cc1` [Compound 12, methyl 4-((7-(3,4-dimethoxyphenyl)pyrazolo [1,5-a]pyrimidine-2-carboxamido)methyl) benzoate], the inhibition at 10 µM in series [1] (10 uM test compound) was over 80%; at Human recombinant PDE4C1 (10 uM test compound) it was 50 to 80%; at Human recombinant PDE4D2 (10 uM test compound), 50 to 80%; in series [5] (10 uM test compound) it was 50 to 80%. The figures for the EC50 on human wild type-CFTR [2] and at human wild type-CFTR [4] were at least 2000 nM and 200 to 2000 nM, respectively. Moreover, in series [3], the solubility at 90 min is under 0.1 µg/mL.

As for `COc1ccc(-c2ccnc3cc(C(=O)Nc4ccc(O)cc4)nn23)cc1OC` [Compound 15, 7-(3,4-dimethoxyphenyl)-N-(4-hydroxyphenyl)pyrazolo[1,5-a]pyrimidine-2-carboxamide], the inhibition at 10 µM (in series [1] (10 uM test compound); on Human recombinant PDE4C1 (10 uM test compound); at Human recombinant PDE4D2 (10 uM test compound); in series [5] (10 uM test compound)) was over 80% each time. The EC50 on human wild type-CFTR [2] and on human wild type-CFTR [4] was under 200 nM throughout. Moreover, in series [3], the solubility at 90 min is under 0.1 µg/mL. Further, the “Ratio of tear volume (test compound to vehicle)” value (from here on “Ratio of tear volume”) with C57BL/6 female mice came out at 1.29.

As for `COC(=O)c1ccc(NC(=O)c2cc3nccc(-c4ccc(OC)c(F)c4)n3n2)cc1` [Compound 33, methyl 4-(7-(3-fluoro-4-methoxyphenyl)pyrazolo [1,5-a]pyrimidine-2-carboxamido)benzoate], the inhibition at 10 µM is 50 to 80% in series [1] (10 uM test compound), under 50% at Human recombinant PDE4C1 (10 uM test compound), 50 to 80% on Human recombinant PDE4D2 (10 uM test compound) and 50 to 80% in series [5] (10 uM test compound). For the same compound, the EC50 was at least 2000 nM at human wild type-CFTR [2] and 200 to 2000 nM on human wild type-CFTR [4]. For the same compound, the solubility at 90 min in series [3] is under 0.1 µg/mL.

On to `COc1ccc(-c2ccnc3cc(C(=O)Nc4ccc(C(=O)N5CCN(C)CC5)cc4)nn23)cc1OC` [Compound 97, 7-(3,4-dimethoxyphenyl)-N-(4-(4-methylpiperazine-1-carbonyl)phenyl)pyrazolo[1,5-a]pyrimidine-2-carboxamide], for which the inhibition at 10 µM (in series [1] (10 uM test compound); at Human recombinant PDE4C1 (10 uM test compound); at Human recombinant PDE4D2 (10 uM test compound); in series [5] (10 uM test compound)) was over 80% in each case. The EC50 at human wild type-CFTR [2] and at human wild type-CFTR [4] was 200 to 2000 nM each time. In addition, in series [3], the solubility at 90 min was in the range of 0.1 to 10 µg/mL (≈ 0.2 to 20 µM). Besides, in the series with C57BL/6 female mice, the “Ratio of tear volume” value came to 0.95.

Take `COC(=O)C(=Cc1ccccc1)NC(=O)c1cc2nccc(-c3ccc(OC)c(OC)c3)n2n1` [Compound 105, methyl 2-(7-(3,4-dimethoxyphenyl)pyrazolo [1,5-a]pyrimidine-2-carboxamido) 3-phenylacrylate]: the inhibition at 10 µM (in series [1] (10 uM test compound); on Human recombinant PDE4C1 (10 uM test compound); on Human recombinant PDE4D2 (10 uM test compound); in series [5] (10 uM test compound)) was over 80% throughout. The figures for the EC50 at human wild type-CFTR [2] and on human wild type-CFTR [4] were 200 to 2000 nM and under 200 nM, respectively. Besides, the solubility at 90 min in series [3] is under 0.1 µg/mL.

Take `COc1ccc(-c2ccnc3cc(C(=O)Nc4ccc(C(=O)N5CCOCC5)cn4)nn23)cc1OC` [Compound 135, 7-(3,4-dimethoxyphenyl)-N-(5-(morpholine-4-carbonyl)pyridin-2-yl) pyrazolo[1,5-a] pyrimidine-2-carboxamide]: the inhibition at 10 µM (in series [1] (10 uM test compound); on Human recombinant PDE4C1 (10 uM test compound); on Human recombinant PDE4D2 (10 uM test compound); in series [5] (10 uM test compound)) was over 80% throughout. Moreover, the EC50 at human wild type-CFTR [2] and at human wild type-CFTR [4] was under 200 nM throughout. Also, in series [3], the solubility at 90 min is under 0.1 µg/mL.

As to `COC(=O)C12CCC(NC(=O)c3cc4nccc(-c5ccc(OC)c(OC)c5)n4n3)(CC1)CC2` [Compound 144, methyl 4-(7-(3,4-dimethoxyphenyl)pyrazolo[1,5-a]pyrimidine-2-carboxamido)bicyclo[2.2.2]octane-1-carboxylate], the inhibition at 10 µM (in series [1] (10 uM test compound); on Human recombinant PDE4C1 (10 uM test compound); at Human recombinant PDE4D2 (10 uM test compound); in series [5] (10 uM test compound)) was over 80% each time. Also, the EC50 at human wild type-CFTR [2] and at human wild type-CFTR [4] was under 200 nM in each case. For the same compound, the solubility at 90 min in series [3] is under 0.1 µg/mL. In the series with C57BL/6 female mice, the “Ratio of tear volume” value turned out to be 1.18.

In the case of `COc1ccc(-c2ccnc3cc(C(=O)Nc4ccc(C(=O)N[C@H](C(=O)N5CCOCC5)C(C)C)cc4)nn23)cc1OC` [Compound 147, (S)-7-(3,4-dimethoxyphenyl)-N-(4-((3-methyl-1-morpholino-1-oxobutan-2-yl)carbamoyl)phenyl) pyrazolo[1,5-a]pyrimidine-2-carboxamide], the inhibition at 10 µM (in series [1] (10 uM test compound); on Human recombinant PDE4C1 (10 uM test compound); at Human recombinant PDE4D2 (10 uM test compound); in series [5] (10 uM test compound)) was over 80% each time. Besides, the EC50 at human wild type-CFTR [2] and at human wild type-CFTR [4] was under 200 nM throughout. For the same compound, the solubility at 90 min in series [3] is under 0.1 µg/mL. Further, the “Ratio of tear volume” value in the series with C57BL/6 female mice came to 1.03.

As to `COc1ccc(-c2ccnc3cc(C(=O)NC45CCC(C(=O)N6CCN(C)CC6)(CC4)CC5)nn23)cc1OC` [Compound 151, 7-(3,4-dimethoxyphenyl)-N-(4-(4-methylpiperazine-1-carbonyl)bicyclo[2.2.2]octan-1-yl)pyrazolo[1,5-a]pyrimidine-2-carboxamide], the inhibition at 10 µM (in series [1] (10 uM test compound); at Human recombinant PDE4C1 (10 uM test compound); at Human recombinant PDE4D2 (10 uM test compound); in series [5] (10 uM test compound)) was over 80% in each case. Also, the EC50 at human wild type-CFTR [2] was 200 to 2000 nM; on human wild type-CFTR [4] it was under 200 nM. Besides, in series [3], the solubility at 90 min was over 10 µg/mL. Also, the “Ratio of tear volume” value with C57BL/6 female mice is 1.40.

With `COc1ccc(-c2ccnc3cc(C(=O)Nc4ccc(N5CCOCC5)cn4)nn23)cc1OC` [Compound 205, 7-(3,4-dimethoxyphenyl)-N-(5-morpholinopyridin-2-yl)pyrazolo[1,5-a]pyrimidine-2-carboxamide], the inhibition at 10 µM (in series [1] (10 uM test compound); at Human recombinant PDE4C1 (10 uM test compound); at Human recombinant PDE4D2 (10 uM test compound); in series [5] (10 uM test compound)) was over 80% each time. For the same compound, the EC50 at human wild type-CFTR [2] and on human wild type-CFTR [4] was under 200 nM throughout. Besides, in the series on C57BL/6 female mice, the “Ratio of tear volume” value was determined as 1.12.

As usually defined, the inhibition is the share of the control response that was lost under treatment. What is called solubility is the dissolved amount per volume that the medium holds.
